From patent US5424311A, “Azaquinoxalines and their use” (Hoeschst Aktiengesellschaft, priority 1992, dated 1995)
pIC50: −log10 of the molar value. ≈ marks a conversion by molar mass, not a printed value.

Experiments:
[1] = target: T1, HIV reverse transcriptase (Human immunodeficiency virus type 1 group M subtype B, UniProt P04585); assay: Inhibition of HIV reverse transcriptase (scintillation proximity assay, SPA); assay type: biochemical; settings: RT-SPA; RT enzyme cloned from HIV in E. coli; 60 min (37° C.)
T1 construct: The RT enzyme (cloned from HIV in E. coli); purchased HT-Biotechnology LTD, Cambridge, UK; host or cells: E. coli
Method: Investigation of the substances for inhibition of HIV reverse transcriptase
The reverse transcriptase (RT) activity was determined by means of a scintillation proximity assay (SPA). The reagent kit for the RT-SPA was purchased from Amersham/Buchler (Braunschweig). The RT enzyme (cloned from HIV in E. coli) originated from HT-Biotechnology LTD, Cambridge, UK.
The assay was carried out according to the method manual of the manufacturer Amersham--with the following modifications:
Bovine serum albumin was added to the final concentration of 0.5 mg/ml to the assay buffer.
The assay was carried out in Eppendorf reaction vessels with a volume of 100 μl of mixture.
The RT concentrate from the manufacturer (5000 U/ml) was diluted to an activity of 15 U/ml in tris-HCl buffer 20 mM; pH 7.2; 30% glycerol.
The incubation time for the mixtures was 60 min (37° C.).
After stopping the reaction and "developing" with the bead suspension, 130 μl of mixture were transferred into 4.5 ml of tris-HCl buffer, 10 mM; pH 7.4; 0.15 M NaCl and the tritium activity was measured in a β-counter.
For a preliminary test of the inhibitory activity, the substances were dissolved in DMSO (stock solution c=1 mg/ml) and tested diluted 10^-1, 10^-2, 10^-3 etc. in DMSO.
To determine IC50 values, the inhibitor stock solutions were further diluted in tris-HCl buffer, 50 mM, pH 8 and tested in suitable concentrations.
The concentration appertaining to 50% enzyme inhibition was found from the graph of RT activity against the logarithm of the concentration of the particular test substance.

HIV = assay: Tests on products against HIV in cell culture (T-cell culture assay, giant cell formation in infected lymphocytes); assay type: cell-based; settings: Human immunodeficiency virus 1, 72 h, lowest product concentration at which no giant cells occurred, 37° C., 3 days
Method: Tests on products against HIV in cell culture
RPMI pH 6.8 Complete medium additionally contains 20% fetal calf serum and 40 IU/ml recombinant interleukin 2.
Lymphocytes isolated from fresh donor blood by means of ®Ficoll gradient centrifugation are cultivated in complete medium with the addition of 2 μg/ml phytohemagglutinin (Wellcome) at 37° C. under 5% CO2 for 36 h. The cells are, after addition of 10% DMSO, frozen at a cell density of 5×10^6 and stored in liquid nitrogen. For the test, the cells are thawed, washed in RPMI medium and cultivated in complete medium for 3-4 days.
The test products were dissolved in DMSO and adjusted with complete medium to a concentration of 1 mg/ml. 0.4 ml of medium was placed in 24-well dishes. After addition of 0.1 ml of the dissolved product to the upper row of the dish, a geometric dilution series was produced by transferring 0.1 ml each time. Product-free controls always received 0.4 ml of complete medium with 0.5% DMSO. Lymphocyte cultures with a cell count of 5×10^5 cells/ml were infected by adding 1/50 of the volume of supernatant from HIV-infected lymphocyte cultures. The titer of these culture supernatants was determined by endpoint dilution to be 1-5×10^6 infectious units/mi. After incubation at 37° C. for 30 min, the infected lymphocytes were spun down and taken up again in the same volume of medium. 0.6 ml portions of this cell suspension were placed in all the wells of the assay plate. The mixtures were incubated at 37° C. for 3 days.
The infected cell cultures were examined under the microscope for the presence of giant cells which indicate active virus replication in the culture. The lowest product concentration at which no giant cells occurred was determined as the HIV inhibitory concentration. As a control, the supernatants from the culture plates were examined for the presence of HIV antigen with the aid of an HIV antigen assay in accordance with the information from the manufacturer (Organon).

Row | Compound | pIC50 [1] | MIC (HIV) [µg/mL]
1 | C=C(C)OC(=O)N1c2nc(C)ccc2NC(=S)C1C (racemic) [Example 20, (3RS)-4-(Isopropenyloxycarbonyl)-3,6-dimethyl-3,4-dihydro-1,4,5-triazanaphthalene-2(1H)-thione] | 4.44 to 5.44 | –
2 | C=C(C)OC(=O)N1C(=O)[C@H](C)N(C(=O)OC(=C)C)c2nc(Cl)ccc21 [Example 10, (3S)-6-Chloro-1,4-his(isopropenyloxycarbonyl)-3-methyl-3,4-dihydro-1,4,5-triazanaphthalen-2(1H)-one] | 5.56 to 6.56 | 1 (≈ 2.73 µM)
3 | CC(C)=CCN1c2nc(Cl)ccc2NC(=O)[C@@H]1C [Example 8, (3S)-6-Chloro-3-methyl-4-(3-methyl-2-butenyl)-3,4-dihydro-1,4,5-triazanaphthalen-2(1H)-one] | 5.42 to 6.42 | 0.08 (≈ 0.301 µM)
4 | CSCC1C(=S)Nc2cccnc2N1C(=O)OC(C)C (stereo not drawn) [Example 37, 4-Isopropoxycarbonyl-3-methylthiomethyl-3,4-dihydro-1,4,5-triazanaphthalene-2(1H)-thione] | 5.49 to 6.49 | > 1
5 | C[C@H]1C(=O)Nc2ccc(Cl)nc2N1Cc1ccccn1 [Example 11, (3S)-6-Chloro-3-methyl-4-(2-picolyl)-3,4-dihydro-1,4,5-triazanaphthalen-2(1H)-one] | 5.46 to 6.46 | 0.2 (≈ 0.693 µM)
6 | CC(C)OC(=O)N1c2ncccc2NC(=O)C1CS(C)(=O)=O (stereo not drawn) [Example 41, 3-Methylsulfonylmethyl-4-isopropoxycarbonyl-3,4-dihydro-1,4,5-triazanaphthalen-2(1H)-one] | – | > 2
7 | C[C@@H]1Nc2nc(Cl)ccc2NC1=O [Example 2, (3S)-6-Chloro-3-methyl-3,4-dihydro-1,4,5-triazanaphthalen-2(1H)-one] | 4.30 to 5.30 | > 0.8
